Measured values reported in ChEMBL document CHEMBL5143755, “Restoration of Motor Function Post-Neurological Injury Using Serotonergic Agonist” (ACS Med Chem Lett, 2022).
pEC50: −log10 of the molar value.

The compounds below were run against 5-hydroxytryptamine receptor 2A (Homo sapiens, UniProt P28223) (assay: Agonist activity at human 5-HT2A receptor assessed as activation of calcium mobilization incubated for 2 mins by Calcium-6 dye based FLIPR assay).
Type: functional

Sequence of 5-hydroxytryptamine receptor 2A (P28223 whole entry): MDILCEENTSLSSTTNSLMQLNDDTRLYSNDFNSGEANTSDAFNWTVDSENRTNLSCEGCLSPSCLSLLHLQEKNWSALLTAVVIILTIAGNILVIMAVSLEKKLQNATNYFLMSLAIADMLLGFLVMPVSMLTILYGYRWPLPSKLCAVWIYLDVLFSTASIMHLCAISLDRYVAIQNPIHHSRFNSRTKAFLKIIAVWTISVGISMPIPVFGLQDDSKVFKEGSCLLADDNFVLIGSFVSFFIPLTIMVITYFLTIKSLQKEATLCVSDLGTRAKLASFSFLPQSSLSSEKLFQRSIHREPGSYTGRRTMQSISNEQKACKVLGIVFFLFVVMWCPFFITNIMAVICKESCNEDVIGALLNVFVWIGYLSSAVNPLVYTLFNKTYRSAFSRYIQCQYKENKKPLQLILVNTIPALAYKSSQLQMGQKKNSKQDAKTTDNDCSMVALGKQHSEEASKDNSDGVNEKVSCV

Row | Compound | pEC50
1 | [2H]C1([2H])CC(c2c[nH]c3cccc(O)c23)C([2H])([2H])N1 (stereo not given) | < 5.00
2 | [2H]C([2H])N1CCC(c2c[nH]c3cccc(O)c23)C1 (stereo not given) | > 6.00
3 | [2H]C1([2H])CC(c2c[nH]c3cccc(OCc4ccccc4)c23)C([2H])([2H])N1C (stereo not given) | < 5.00
4 | [2H]C1([2H])CC(c2c[nH]c3cccc(OCc4ccccc4)c23)C([2H])([2H])N1 (stereo not given) | > 6.00
5 | [2H]C1([2H])CC(c2c[nH]c3cccc(O)c23)C([2H])([2H])N1C (stereo not given) | > 6.00
